According to patent publication US20030149021A1, “Piperazine mono(dithio)carbamate ester compounds and analogs thereof: preparation method and uses thereof” (Medinox, Inc., priority 2001, published 2003):

Tests used:
Mouse sarcoma 180 (S180) = experiment: Anticancer activity against implanted mouse sarcoma 180 (S180), tumor weight; assay type: in vivo, mice; conditions: for Inhibition (%) (% reduction in tumor mass): S180 in mice, tumor harvested at day 12
Method: Animals: Kuiming mice 18-22 g were provided by the animal department of Bejing Medical University. ICR mice were provided by Beijing Weitonglihua Experiemental Animal Technology, Inc. Each experiment used the same number of male mice and female mice.
Tumor cell line: Mouse sarcoma 180 (S180) was provided by the pharmaceutical group of National Key Laboratory of Natural and Mimic Medicine.
Compound 42 was prepared by the School of Pharmaceutical Sciences of Peking University. Cyclophosphoramide was purchased from Shanghai Hualian Pharmaceutical, Inc.
Tumor was removed from the mouse abdominal cavity. The tumor was diluted to 5×10^6/ml and implanted to the left axilla subcutaneously (0.2 ml per mouse) under sterile conditions. Twenty four (24) hours after implantation, animals were divided into two groups (10 mice per group), either 42 or cyclophosphoramide was given orally to animals once a day for 10 days.
At day 12, the tumor was harvested and the average tumor weight of each group was calculated.

[1] = Preliminary acute toxicity in mice; assay type: in vivo

SMILES	inhibition against S180 (in words) (Mouse sarcoma 180 (S180))	Inhibition (%) (% reduction in tumor mass) (Mouse sarcoma 180 (S180); 100 mg/kg orally once a day for 10 days)	Inhibition (%) (% reduction in tumor mass) (Mouse sarcoma 180 (S180); 500 mg/kg orally once a day for 10 days)	toxicity (in words) [1]	No of Death ([1]; mice, dose 10 G/kg, 20 animals at start)	Inhibition (%) (% reduction in tumor mass) (Mouse sarcoma 180 (S180); 30 mg/kg orally once a day for 10 days)
CN1CCN(C(=S)SCCC(C#N)(c2ccccc2)c2ccccc2)CC1.Cl [Compound 42, 4-Methyl-piperazine-1-carbodithioc acid 3-cyano-3,3-diphenyl-propyl ester hydrochloride]	significant inhibition	74	80	low toxicity	0	
O=P1(N(CCCl)CCCl)NCCCO1 (stereo not drawn) [Cyclophosphoramide, reference compound]						73
